Results from patent US20240156785A1, “COMPOSITION FOR IMPROVING BLOOD CHOLESTEROL LEVEL” (SUNTORY HOLDINGS LIMITED, priority 2021, published 2024).

Key:
[1] = test system: HDL cholesterol and LDL cholesterol in the blood; assay: Blood cholesterol evaluation study on human (placebo-controlled, randomized, double-blind, parallel-group); assay type: in vivo; conditions: human adults, one capsule (20 mg L-ergothioneine) per day orally for four weeks, week 4 vs pre-testing, compared with control food group
Method: In order to evaluate the influence of supplements containing ergothioneine on human blood cholesterol levels, a placebo-controlled, randomized, double-blind, parallel-group study was conducted on subjects including male and female adults (46 subjects in a test food group; 46 subjects in a control food group; 92 subjects in total). In this study, one capsule containing 20 mg ergothioneine (test food) or one capsule not containing ergothioneine (control food) was fed per day for four weeks. The blood cholesterol levels of the subjects were measured for pre-testing before starting the study (before starting ingestion of the test food or control food). After ingestion of the test food or control food for four weeks, the blood cholesterol levels of the subjects were measured again (testing on week 4). The cholesterol measured includes HDL cholesterol and LDL cholesterol. […] The ratio of LDL cholesterol level to HDL cholesterol level (LDL/HDL ratio) in the blood was determined for each subject from the measurements (mg/dL) of HDL cholesterol and LDL cholesterol. […] For each group, the amount of changes in LDL/HDL ratio (Δ in LDL/HDL ratio) from the time of pre-testing was determined by subtracting the LDL/HDL ratio at the time of pre-testing from the LDL/HDL ratio at the time of testing on week 4 ((LDL/HDL ratio at the time of testing on week 4)—(LDL/HDL ratio at the time of pre-testing)). […]

[2] = test system: triglyceride (neutral fat) level in plasma; conditions: mice, oral administration, compared with mice not orally administered with ergothioneine; cited from earlier work

In the case of `C[N+](C)(C)[C@@H](Cc1c[nH]c(=S)[nH]1)C(=O)[O-]` [L-ergothioneine], the “changes in HDL cholesterol level (Δ in HDL cholesterol) in the blood” value [1] is given as “increased”, the “changes in LDL/HDL ratio (Δ in LDL/HDL ratio) in the blood” value [1] is given as “reduced” and the “triglyceride (neutral fat) level in plasma” value [2] is given as “lower”.
